Results taken from patent publication US20250099420A1, “SMALL MOLECULE MODULATORS OF GPR139 COMPLEX” (University of Florida Research Foundation, Incorporated, priority 2022, published 2025).
pEC50: −log10 of the molar value. Like-named read-outs stand apart in the source and are kept apart here.

Assays:
[1] = tested on: parental HEK cells; test: HEK parental Agonist Counterscreen Assay (non-transfected cells); format: cell-based; conditions: for Averaged Max % Response (±St. Dev.): activity relative to known control
From the text: The high control for the agonist counterscreen was Forskolin not acetylcholine.

[2] = target: T1, GPR139 (Homo sapiens, UniProt Q6DWJ6); test: GPR139 Agonist titration / agonist counterscreen assay (calcium detection, HEK-GPR139 cells); format: cell-based; parameters: expressed in transfected cells; host or cells: HEK Aequorin cells, Maxcyte transient transfection; conditions: GPR139 Agonist Activity; for pEC50: read-out: EC50; for Averaged Max % Response (±St. Dev.): activity relative to known control
T1 sequence (Q6DWJ6 1-353): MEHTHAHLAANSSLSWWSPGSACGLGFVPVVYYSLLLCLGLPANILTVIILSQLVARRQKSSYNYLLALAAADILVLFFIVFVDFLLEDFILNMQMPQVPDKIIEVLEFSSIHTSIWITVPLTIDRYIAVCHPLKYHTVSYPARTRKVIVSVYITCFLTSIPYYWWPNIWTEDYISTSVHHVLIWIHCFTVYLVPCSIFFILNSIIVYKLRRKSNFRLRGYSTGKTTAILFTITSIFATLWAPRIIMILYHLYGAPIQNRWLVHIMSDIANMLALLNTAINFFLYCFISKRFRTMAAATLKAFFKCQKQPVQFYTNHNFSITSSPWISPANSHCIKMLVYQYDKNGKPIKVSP
Description: GPR activity was assessed using a calcium detection assay. […] Negative control samples were treated with DMSO. […] Intracellular calcium was measured using Calcium 5.

[3] = Homo sapiens, HEK293, HEK Agonist Activity section of Table 4 (parental HEK counterscreen)
[4] = HEK Agonist Activity section of Table 4 (parental HEK counterscreen)
[5] = values printed in E-notation without unit
[6] = Homo sapiens, HEK293, HEK Agonist Activity, parental non-transfected HEK cells

Structure (SMILES): COc1cc(C(=O)NNC(=O)CSc2ccc(C)cc2)cc(OC)c1C [SR-01000070170]
- Lipophilic Efficiency (logD) ([1]; HEK Agonist Activity section): 1.89
- Lipophilic Efficiency (logP) ([1]; HEK Agonist Activity section): 1.89
- Averaged Max % Response (±St. Dev.) ([1]; HEK Agonist Activity section): 6.82 ± 9.60%
- pEC50 [1, 3]: < 4.82
- Efficiency Ligand [2]: 0.34
- Hill Slope [2]: 0.96
- Lipophilic Efficiency (logD) [2]: 3.40
- Lipophilic Efficiency (logP) [2]: 3.40
- pEC50 ([2]; HEK-GPR139 cells): 6.33
- Averaged Max % Response (±St. Dev.) [2]: 98.34 ± 1.36%

Structure (SMILES): CCn1c2ccccc2c2cc(C3C(C#N)=C(N)Oc4n[nH]c(C)c43)ccc21 (centres unmarked) [SR-01000465824]
- Lipophilic Efficiency (logD) ([1]; HEK Agonist Activity section): 1.72
- Lipophilic Efficiency (logP) ([1]; HEK Agonist Activity section): 1.67
- pEC50 [1, 4]: < 4.93
- Averaged Max % Response (±St. Dev.) ([1]; HEK Agonist Activity section): −11.98 ± 3.62%
- Efficiency Ligand [2]: 0.27
- Hill Slope [2]: 1.13
- Lipophilic Efficiency (logD) [2]: 2.21
- Lipophilic Efficiency (logP) [2]: 2.16
- pEC50 ([2]; HEK-GPR139 cells): 5.42
- Averaged Max % Response (±St. Dev.) [2]: 68.48 ± 7.96%

Structure (SMILES): CC1(c2ccc3c(c2)OCCO3)NC(=O)C(CC(=O)NCC2CCCCC2)C1=O (centres unmarked) [SR-01000074761]
- Lipophilic Efficiency (logD) ([1]; HEK Agonist Activity section): 3.15
- Lipophilic Efficiency (logP) ([1]; HEK Agonist Activity section): 3.15
- Averaged Max % Response (±St. Dev.) ([1]; HEK Agonist Activity section): 13.40 ± 6.99%
- pEC50 [1, 3]: < 4.81
- Averaged Max % Response (±St. Dev.) [2]: 95.96 ± 3.33%
- Lipophilic Efficiency (logD) ([2]; based on logD): 5.32
- Lipophilic Efficiency (logP) ([2]; based on logP): 5.32
- Hill Slope ([2]; fitted dose-response curve): 0.92
- Efficiency Ligand ([2]; ligand efficiency): 0.34
- pEC50 [2, 5]: 6.99

Structure (SMILES): CCOC(=O)C1CCN(C(=O)C2CC(Cc3cccc4ccccc34)=NO2)CC1 (centres unmarked) [SR-01000185621]
- Lipophilic Efficiency (logD) ([1]; HEK Agonist Activity section): 1.69
- Lipophilic Efficiency (logP) ([1]; HEK Agonist Activity section): 1.69
- Averaged Max % Response (±St. Dev.) ([1]; HEK Agonist Activity section): −9.62 ± 7.28%
- pEC50 [1, 3]: < 4.85
- Efficiency Ligand [2]: 0.28
- Hill Slope [2]: 0.84
- Lipophilic Efficiency (logD) [2]: 2.73
- Lipophilic Efficiency (logP) [2]: 2.73
- pEC50 ([2]; HEK-GPR139 cells): 5.89
- Averaged Max % Response (±St. Dev.) [2]: 81.20 ± 9.68%

Structure (SMILES): Cc1cc(C(=O)CCC(=O)NNC(=O)c2ccc(COc3ccccc3)cc2)c(C)o1 [SR-01000069259]
- Lipophilic Efficiency (logD) ([1]; HEK Agonist Activity): 0.40
- Lipophilic Efficiency (logP) ([1]; HEK Agonist Activity): 0.40
- Averaged Max % Response (±St. Dev.) ([1]; HEK Agonist Activity): 7.00 ± 9.99%
- pEC50 [1, 6]: < 4.85
- Averaged Max % Response (±St. Dev.) [2]: 126.19 ± 25.88%
- Lipophilic Efficiency (logD) ([2]; based on logD): 3.74
- Lipophilic Efficiency (logP) ([2]; based on logP): 3.74
- Efficiency Ligand ([2]; ligand efficiency): 0.37
- pEC50 [2, 5]: < 8.19

Structure (SMILES): COc1cc(-c2nnc(COc3ccc(Cl)cc3C)o2)cc(OC)c1OC [SR-01000504687]
- Lipophilic Efficiency (logD) ([1]; HEK Agonist Activity): 1.65
- Lipophilic Efficiency (logP) ([1]; HEK Agonist Activity): 1.65
- Averaged Max % Response (±St. Dev.) ([1]; HEK Agonist Activity): −3.10 ± 6.59%
- pEC50 ([1]; HEK Agonist Activity, parental non-transfected HEK cells): < 4.91
- Averaged Max % Response (±St. Dev.) [2]: 92.66 ± 5.93%
- Lipophilic Efficiency (logD) ([2]; based on logD): 4.45
- Lipophilic Efficiency (logP) ([2]; based on logP): 4.45
- Hill Slope ([2]; fitted dose-response curve): 0.62
- Efficiency Ligand ([2]; ligand efficiency): 0.40
- pEC50 [2, 5]: 7.71

Structure (SMILES): Cc1cccc(NC(=O)Cn2ncc3c2-c2ccccc2OC3)n1 [SR-01000135038]
- Lipophilic Efficiency (logD) ([1]; HEK Agonist Activity section): 2.87
- Lipophilic Efficiency (logP) ([1]; HEK Agonist Activity section): 2.87
- Averaged Max % Response (±St. Dev.) ([1]; HEK Agonist Activity section): 13.01 ± 4.86%
- pEC50 [1, 3]: < 4.85
- Averaged Max % Response (±St. Dev.) [2]: 105.92 ± 4.10%
- Lipophilic Efficiency (logD) ([2]; based on logD): 5.32
- Lipophilic Efficiency (logP) ([2]; based on logP): 5.31
- Hill Slope ([2]; fitted dose-response curve): 0.77
- Efficiency Ligand ([2]; ligand efficiency): 0.43
- pEC50 [2, 5]: 7.30

Structure (SMILES): Cc1cc(C)c(/C=C2/NC(=N)NC2=O)c(C)c1 [SR-01000218376]
- Lipophilic Efficiency (logD) ([1]; HEK Agonist Activity section): 1.45
- Lipophilic Efficiency (logP) ([1]; HEK Agonist Activity section): 1.45
- Averaged Max % Response (±St. Dev.) ([1]; HEK Agonist Activity section): 1.93 ± 7.79%
- pEC50 [1, 3]: < 4.85
- Averaged Max % Response (±St. Dev.) [2]: 76.44 ± 0.80%
- Lipophilic Efficiency (logD) ([2]; based on logD): 3.82
- Lipophilic Efficiency (logP) ([2]; based on logP): 3.82
- Hill Slope ([2]; fitted dose-response curve): 0.92
- Efficiency Ligand ([2]; ligand efficiency): 0.59
- pEC50 [2, 5]: 7.22

Structure (SMILES): CC(CCc1ccccc1)NC(=O)c1ccc2c(c1)C(Cc1ccccc1)C(=O)C[S+]2[O-] (centres unmarked) [SR-01000129880]
- Lipophilic Efficiency (logD) ([1]; HEK Agonist Activity section): 1.22
- Lipophilic Efficiency (logP) ([1]; HEK Agonist Activity section): 1.21
- Averaged Max % Response (±St. Dev.) ([1]; HEK Agonist Activity section): 0.02 ± 5.29%
- pEC50 [1, 3]: < 4.85
- Averaged Max % Response (±St. Dev.) [2]: 114.68 ± 22.09%
- Lipophilic Efficiency (logD) ([2]; based on logD): 3.62
- Lipophilic Efficiency (logP) ([2]; based on logP): 3.61
- Hill Slope ([2]; fitted dose-response curve): 0.44
- Efficiency Ligand ([2]; ligand efficiency): 0.32
- pEC50 [2, 5]: 7.25

Structure (SMILES): O=C(Cn1ncc2c(Cl)cccc21)NCCc1ccc(Cl)cc1 [SR-01000155030]
- Lipophilic Efficiency (logD) ([1]; HEK Agonist Activity section): 1.32
- Lipophilic Efficiency (logP) ([1]; HEK Agonist Activity section): 1.32
- Averaged Max % Response (±St. Dev.) ([1]; HEK Agonist Activity section): 10.75 ± 8.11%
- pEC50 [1, 3]: < 4.85
- Averaged Max % Response (±St. Dev.) [2]: 113.63 ± 16.89%
- Lipophilic Efficiency (logD) ([2]; based on logD): 3.06
- Lipophilic Efficiency (logP) ([2]; based on logP): 3.06
- Hill Slope ([2]; fitted dose-response curve): 0.65
- Efficiency Ligand ([2]; ligand efficiency): 0.40
- pEC50 [2, 5]: 6.60

Structure (SMILES): COc1ccccc1C(=O)NNC(=O)C(C)Oc1ccc(Cl)cc1Cl (centres unmarked) [SR-01000356020]
- Lipophilic Efficiency (logD) ([1]; HEK Agonist Activity): 1.52
- Lipophilic Efficiency (logP) ([1]; HEK Agonist Activity): 1.48
- Averaged Max % Response (±St. Dev.) ([1]; HEK Agonist Activity): 1.37 ± 3.30%
- pEC50 [1, 6]: < 4.85
- Averaged Max % Response (±St. Dev.) [2]: 106.05 ± 9.09%
- Lipophilic Efficiency (logD) ([2]; based on logD): 4.30
- Lipophilic Efficiency (logP) ([2]; based on logP): 4.27
- Hill Slope ([2]; fitted dose-response curve): 0.91
- Efficiency Ligand ([2]; ligand efficiency): 0.43
- pEC50 [2, 5]: 7.64

Structure (SMILES): CC(NC(=O)CN1C(=O)c2cccc([N+](=O)[O-])c2C1=O)c1ccc(Cl)cc1Cl (centres unmarked) [SR-01000074712]
- Lipophilic Efficiency (logD) ([1]; HEK Agonist Activity): 1.73
- Lipophilic Efficiency (logP) ([1]; HEK Agonist Activity): 1.73
- Averaged Max % Response (±St. Dev.) ([1]; HEK Agonist Activity): 30.27 ± 2.23%
- pEC50 [1, 6]: < 4.83
- Averaged Max % Response (±St. Dev.) [2]: 109.67 ± 8.84%
- Lipophilic Efficiency (logD) ([2]; based on logD): 4.91
- Lipophilic Efficiency (logP) ([2]; based on logP): 4.91
- Hill Slope ([2]; fitted dose-response curve): 0.80
- Efficiency Ligand ([2]; ligand efficiency): 0.40
- pEC50 [2, 5]: 8.01

Structure (SMILES): O=C(CN1C(=O)NC2(CCc3ccccc3C2)C1=O)Nc1cccc2ccccc12 (centres unmarked) [SR-01000042749]
- Lipophilic Efficiency (logD) ([1]; HEK Agonist Activity section): 1.39
- Lipophilic Efficiency (logP) ([1]; HEK Agonist Activity section): 1.39
- Averaged Max % Response (±St. Dev.) ([1]; HEK Agonist Activity section): −8.38 ± 6.55%
- pEC50 [1, 3]: < 4.85
- Efficiency Ligand [2]: 0.29
- Hill Slope [2]: 0.27
- Lipophilic Efficiency (logD) [2]: 2.77
- Lipophilic Efficiency (logP) [2]: 2.77
- pEC50 ([2]; HEK-GPR139 cells): 6.23
- Averaged Max % Response (±St. Dev.) [2]: 74.83 ± 7.16%

Structure (SMILES): CC(C)C(=O)NNC(=O)C(C)Oc1ccc(Cl)cc1Cl (centres unmarked) [SR-01000361172]
- Lipophilic Efficiency (logD) ([1]; HEK Agonist Activity section): 1.97
- Lipophilic Efficiency (logP) ([1]; HEK Agonist Activity section): 1.93
- Averaged Max % Response (±St. Dev.) ([1]; HEK Agonist Activity section): 2.50 ± 11.74%
- pEC50 [1, 3]: < 4.85
- Efficiency Ligand [2]: 0.40
- Hill Slope [2]: 1.48
- Lipophilic Efficiency (logD) [2]: 2.81
- Lipophilic Efficiency (logP) [2]: 2.78
- pEC50 ([2]; HEK-GPR139 cells): 5.70
- Averaged Max % Response (±St. Dev.) [2]: 91.50 ± 11.81%

Structure (SMILES): Cc1ccc2c(c1)-c1c(cnn1CC(=O)Nc1ncccc1C)CO2 [SR-01000106321]
- Lipophilic Efficiency (logD) ([1]; HEK Agonist Activity section): 1.97
- Lipophilic Efficiency (logP) ([1]; HEK Agonist Activity section): 1.97
- pEC50 [1, 4]: < 4.85
- Averaged Max % Response (±St. Dev.) ([1]; HEK Agonist Activity section): 6.49 ± 5.13%
- Efficiency Ligand [2]: 0.34
- Hill Slope [2]: 1.43
- Lipophilic Efficiency (logD) [2]: 3.26
- Lipophilic Efficiency (logP) [2]: 3.26
- pEC50 ([2]; HEK-GPR139 cells): 6.14
- Averaged Max % Response (±St. Dev.) [2]: 96.96 ± 1.13%
